Several values for one entry are separate records, joined by “and”; a condition that tells them apart may be missing. Identical values can stand only once.
Key:
[1] = test system: morphine analgesia; experiment: Increase in analgesia of morphine, Tail Flick Test (Experiment 1); format: in vivo, rats; conditions: for percentage variation of latency of pain sensation / M (10-90) ± SE, mean percentage variation of latency: compound 10 mg/kg i.p. + morphine 2 mg/kg; for M (10-90) ± SE, mean percentage variation of latency: mean 10-90 min; for Power ratio with respect to morphine alone: rat, in vivo
Summary of the method: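 Tail-flick latency to 75 °C radiant heat, capped at 8 s, measured in male non-fasted rats weighing 150-200 g. Percentage change per animal derived from pre-treatment baseline versus post-drug readings at 10-90 min (10, 20, 30, 45, 60, 90 min).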

[2] = test system: intestinal transit of carbon; experiment: Anti-spastic activity, vegetable carbon intestinal transit test; format: in vivo, mice; conditions: Mus musculus, ip; read-out: antispastic activity ED50 (dose reducing intestinal transit of carbon by 50%)
Description: The anti-spastic activity which the present compounds exert on the entire digestive system is also notable. Measured in mice with the vegetable carbon test (rate of transit through the stomach and the intestine), this activity is illustrated in the following table.
claimed administered intraperitoneally in mice. Values
expressed as the ED 50 in mg/kg, that is the dose which
reduces the intestinal transit of carbon by 50%

[3] = test system: CCK-8 induced contraction of guinea pig gall bladder; experiment: Anti-CCK activity on gall bladder strips in vitro; conditions: CCK-8 10 ng/ml
Summary of the method: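 CCK-8 at 10 ng/ml drove isometric contraction of guinea pig gall bladder strips held at 32 °C in oxygenated Krebs (O2/CO2 95:5). Antagonism was measured at graded compound concentrations and reported as ED50, in μg/ml, for 50% inhibition of the contraction.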

[4] = test system: CCK-8 induced contraction of guinea pig gall bladder; experiment: Anti-CCK-8 activity on gall bladders in situ; format: in vivo
Procedure: In order to confirm the evidence of the studies in vitro several of the more interesting compounds were tested in vivo on guinea pig gall baldders in situ.
The method used is that described by Ljungberg (Svensk. Farm. Tidskr. 68, 351-354, 1964).
Guinea pigs having a weight of about 400 g, anaesthetised with urethane, were used; the substances under examination were administered intraveneously into the jugular vein.
The responses of the gall bladders to the substances under test were detected by means of a force transducer and recorded by means of a microdynamometer. The optimum contracting dose was chosen as 10 ng/kg of CCK-8. The antagonist compounds tested were administered in increasing doses so as to enable the calculation of an ED50 value, that is in the dose (in mg/kg i.v.) capable of inhibiting 50% of the contracting effect of 10 ng/kg i.v. of CCK-8.
The results obtained are given in Table 7 below, which gives the doses used and the effects obtained expressed as a percentage inhibition of the contracting effect of CCK-8 as well as the ED50 found.

[5] = test system: endogenous opiates analgesia; experiment: Analgesic activity of endogenous opiates released by transcutaneous shock, Tail Flick Test (Experiment 3); format: in vivo, rats
Procedure: Experiment No. 3: Influence of several of the compounds of the invention on the analgesic activities of endogenous opiates released by transcutaneous shock in rats and measured by the Tail Flick Test
The method is that described by Lewis et al. J. Neurosc. 1, 358 […]. Male rats which have not fasted and have a weight of about 200 g are used.
The animals are stressed by the application of a 60 Hz-2.5 mA current to the front leg in pulses of a duration of 1 second every 5 seconds for 20 minutes.
This stress regime induces the release of endogenous opiates.

[6] = test system: biliary flow; experiment: Biliary flow (choleretic activity); format: in vivo, rat
Procedure: The following experiment was carried out: a cannula was inserted in the bile duct of a rat anaesthetised with urethane, together with a small needle connected to a polythene tube, and the bile liquid was thus collected. The collection was carried out for one hour before the intravenous administration of the tested compounds and for a further two hours after administration, the samples collected at 30 minute intervals being weighed.
In order to prevent possible dehydration of the animals, 0.5 ml of physiological solution was administered at 30 minute intervals up to a total of 3 ml.

Row | SMILES | percentage variation of latency of pain sensation ([1]; 10') | percentage variation of latency of pain sensation ([1]; 20') | percentage variation of latency of pain sensation ([1]; 30') | percentage variation of latency of pain sensation ([1]; 45') | percentage variation of latency of pain sensation ([1]; 60') | percentage variation of latency of pain sensation ([1]; 90') | M (10-90) ± SE, mean percentage variation of latency [1] | Power ratio with respect to morphine alone [1] | ED50 [2] | ED50 (concentration antagonising 50% of contracting effect of CCK-8) [3] | also measured
1 | CCCCN(CCCC)C(=O)C(CCC(=O)O)NC(=O)c1ccc(I)cc1 (stereo not shown) [Compound C-27] | 52.3 ± 13.0% | 81.4% | 90.2 ± 7.0% | 85.9 ± 10.0% | 60.3 ± 15.0% | 50.3 ± 13.0% | 70.0 ± 17.8% | 2.35 | 40.3 mg/kg | 10.2 µg/mL | –
2 | CCCN(CCC)C(=O)C(CCC(=O)O)NC(=O)c1cccc(C)c1 (stereo not shown) [Compound C-28] | 15.7 ± 10% | 66.8 ± 18% | 68.3 ± 20% | 68.4 ± 17% | 74.5 ± 11% | 27.5 ± 15% | 53.5 ± 25% | 1.80 | 91.8 mg/kg | > 300 µg/mL | –
3 | CCCN(CCC)C(=O)C(CCC(=O)O)NC(=O)c1cc(C)cc(C)c1 (stereo not shown) [Compound C-31] | 28.9 ± 17% | 43.3 ± 25% | 54.7 ± 22% | 68.0 ± 22% | 57.4 ± 16% | 49.5 ± 19% | 50.4 ± 14% | 1.69 | – | 22.9 µg/mL | percentage inhibition of contracting effect of CCK-8 ([4]; 30 mg/kg i.v., single experiments): 82.1% and 92.5% and 58.7%; ED50 ([4]; Cavia porcellus, iv, CCK-8 10 ng/kg i.v., read-out: ED50 (inhibition of 50% of contracting effect of CCK-8)): 16.3 mg/kg
4 | CCCN(CCC)C(=O)C(CCC(=O)O)NC(=O)c1ccc(CC)cc1 (stereo not shown) [Compound C-34] | 19.6 ± 23% | 59 ± 17% | 85.5 ± 10% | 78.4 ± 16% | 67 ± 20% | 59.1% | 60.6 ± 23% | 2.03 | 65.5 mg/kg | 40.1 µg/mL | average latency, Tail Flick ([5]; compound 1 mg/kg iv + stress, 5'): 5.40 ± 0.35 s; average latency, Tail Flick ([5]; compound 1 mg/kg iv + stress, 10'): 4.9 ± 0.25 s; average latency, Tail Flick ([5]; compound 1 mg/kg iv + stress, 15'): 3.4 ± 0.16 s; average latency, Tail Flick ([5]; compound 3 mg/kg iv + stress, 5'): 6.56 ± 0.33 s; average latency, Tail Flick ([5]; compound 3 mg/kg iv + stress, 10'): 5.58 ± 0.31 s; average latency, Tail Flick ([5]; compound 3 mg/kg iv + stress, 15'): 3.98 ± 0.32 s
5 | CCCCc1ccc(C(=O)NC(CCC(=O)O)C(=O)N(CCC)CCC)cc1 (stereo not shown) [Compound C-37] | 27.6 ± 13% | 45.8 ± 18% | 55.0 ± 16% | 51.1% | 23.4 ± 21% | 12.4 ± 13% | 35.9 ± 17% | 1.20 | 160 mg/kg | – | –
6 | CCCc1ccc(C(=O)NC(CCC(=O)O)C(=O)N(CC)CC)cc1 (stereo not shown) [Compound C-41] | 32.1 ± 18% | 60.0 ± 22% | 40.0 ± 17% | 46.7 ± 23% | 11.5% | 7.4 ± 20% | 32.9 ± 20% | 1.10 | 182 mg/kg | – | –
7 | CCCCCCNC(=O)C(CCC(=O)O)NC(=O)c1ccc(C)c(C)c1 (stereo not shown) [Compound C-46] | 14.7 ± 9% | 60.0 ± 18% | 28.0 ± 5% | 55.2 ± 20% | 30.2 ± 17% | 12.2 ± 11% | 32.9 ± 21% | 1.10 | 66.9 mg/kg | – | –
8 | CCCCN(CCCC)C(=O)CCC(NC(=O)c1cccc(C#N)c1)C(=O)O [Compound D-5] | 72.2% | 92.5 ± 7.0% | 95.3 ± 5.0% | 96.0 ± 4.0% | 74.3 ± 11.0% | 75.5% | 84.3 ± 11.4% | 2.83 | 74.9 mg/kg | > 200 µg/mL | –
9 | N#Cc1cccc(C(=O)NC(CCC(=O)N2CCCCC2)C(=O)O)c1 [Compound D-11] | 25.3 ± 7.0% | 68.3% | 74.8 ± 18.0% | 82.8 ± 17.0% | 86.2 ± 14.0% | 77.5 ± 13.0% | 69.1% | 2.32 | – | > 200 µg/mL | % increase in biliary flow with respect to controls ([6]; 12.5 mg/kg i.v.): +33.7%; % increase in biliary flow with respect to controls ([6]; 25 mg/kg i.v.): +80.0%; % increase in biliary flow with respect to controls ([6]; 50 mg/kg i.v.): +118.8%; ED50 ([6]; Rattus norvegicus, iv, average over 2 hours, read-out: ED50 (dose causing 50% increase in biliary flow)): 18.5 mg/kg
